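Interpolation was linear, between the two tested concentrations surrounding the appropriate level; five concentrations were tested over 48 hours in 96-well plates. Here, GI50 denotes the concentration required for 50% inhibition of growth.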 Calls of active or inactive are those of the source. Cut-off read from the data, not from the text of the source: active = GI50 up to about 1.1 µM and inactive = higher.
Experiments:
Assay in all cases: NCI anticancer screen, dose series, 48 h
A498 = test system: A498
SK-MEL-28 = test system: SK-MEL-28
CAKI-1 = test system: CAKI-1
SK-MEL-5 = test system: SK-MEL-5
SF-295 = test system: SF-295
OVCAR-3 = test system: OVCAR-3
Malme-3M = test system: Malme-3M
RXF 393 = test system: RXF 393
HOP-92 = test system: HOP-92
HCT-116 = test system: HCT-116
OVCAR-4 = test system: OVCAR-4
RPMI-8226 = test system: RPMI-8226
LOX IMVI = test system: LOX IMVI
HL-60 = test system: HL-60
SK-OV-3 = test system: SK-OV-3
PC-3 = test system: PC-3
MCF7 = test system: MCF7
MDA-N = test system: MDA-N
786-0 = test system: 786-0
M14 = test system: M14

Compound	GI50 (A498)	GI50 (SK-MEL-28)	GI50 (CAKI-1)	GI50 (SK-MEL-5)	GI50 (SF-295)	GI50 (OVCAR-3)	GI50 (Malme-3M)	GI50 (RXF 393)	GI50 (HOP-92)	GI50 (HCT-116)	GI50 (OVCAR-4)	GI50 (RPMI-8226)	GI50 (LOX IMVI)	GI50 (HL-60)	GI50 (SK-OV-3)	GI50 (PC-3)	GI50 (MCF7)	GI50 (MDA-N)	GI50 (786-0)	GI50 (M14)
CC(C)=CCC(OC(=O)C=C(C)C)c1cc(O)c2c(c1O)C(=O)C=CC2=O (stereo not drawn)	2.62 µM (inactive)	0.853 µM (active)	0.64 µM (active)	0.883 µM (active)	2.95 µM (inactive)	0.839 µM (active)	0.428 µM (active)	0.218 µM (active)	0.469 µM (active)	0.279 µM (active)	0.78 µM (active)	0.171 µM (active)	0.261 µM (active)	0.0419 µM (active)	5.45 µM (inactive)	–	–	–	–	–
Cc1oc2c(c1C)S(=O)(=O)C(C#N)=CN2	> 100 µM (inactive)	> 100 µM (inactive)	> 100 µM (inactive)	> 100 µM (inactive)	> 100 µM (inactive)	> 100 µM (inactive)	42.2 µM (inactive)	–	> 100 µM (inactive)	> 100 µM (inactive)	> 100 µM (inactive)	> 100 µM (inactive)	> 100 µM (inactive)	–	> 100 µM (inactive)	> 100 µM (inactive)	> 100 µM (inactive)	> 100 µM (inactive)	> 100 µM (inactive)	> 100 µM (inactive)
COc1cccc2c1C(=O)c1c(O)c3c(c(O)c1C2=O)C[C@@](O)(C(C)=O)C[C@@H]3OC1CC(O)C(O)C(C)O1 (stereo partly drawn)	3.05 µM (inactive)	6.08 µM (inactive)	0.789 µM (active)	0.875 µM (active)	0.673 µM (active)	3.69 µM (inactive)	0.000916 µM (active)	1.17 µM (inactive)	2.1 µM (inactive)	0.288 µM (active)	3.81 µM (inactive)	0.485 µM (active)	0.59 µM (active)	0.0501 µM (active)	4.51 µM (inactive)	4.95 µM (inactive)	–	8.71 µM (inactive)	1.57 µM (inactive)	4.8 µM (inactive)
Cc1ccc(C(=O)Nc2ccc(S(=O)(=O)O)c3cc(S(=O)(=O)O)cc(S(=O)(=O)O)c23)cc1N	> 100 µM (inactive)	> 100 µM (inactive)	> 100 µM (inactive)	> 100 µM (inactive)	2.75 µM (inactive)	> 100 µM (inactive)	> 100 µM (inactive)	> 100 µM (inactive)	–	> 100 µM (inactive)	> 100 µM (inactive)	–	–	> 100 µM (inactive)	91.6 µM (inactive)	> 100 µM (inactive)	> 100 µM (inactive)	> 100 µM (inactive)	> 100 µM (inactive)	> 100 µM (inactive)
O=C(NC(Cc1ccc(I)cc1)C(=O)O)c1ccc(Br)cc1 (stereo not drawn)	> 100 µM (inactive)	> 100 µM (inactive)	> 100 µM (inactive)	> 67.1 µM (inactive)	> 100 µM (inactive)	89.7 µM (inactive)	80.9 µM (inactive)	> 100 µM (inactive)	76.7 µM (inactive)	> 100 µM (inactive)	> 85.5 µM (inactive)	46.9 µM (inactive)	> 100 µM (inactive)	> 100 µM (inactive)	> 100 µM (inactive)	–	> 60.4 µM (inactive)	–	–	–
CC1=CC[C@H](C)C(C)(C)C1/C=C/C(C)=C/CC[C@@]1(CO)[C@H](CCCO)/C(=C(/C)C=O)CC[C@]1(C)O (stereo partly drawn)	–	11.4 µM (inactive)	3.61 µM (inactive)	0.513 µM (active)	1.23 µM (inactive)	–	3.27 µM (inactive)	14.6 µM (inactive)	< 0.01 µM (active)	–	–	–	0.824 µM (active)	0.897 µM (active)	25.2 µM (inactive)	–	–	–	–	2.07 µM (inactive)
O=C(O)C1CCC(=O)N1C(=O)COc1cc(Cl)c(Cl)cc1Cl (stereo not drawn)	> 100 µM (inactive)	> 100 µM (inactive)	> 100 µM (inactive)	> 100 µM (inactive)	> 100 µM (inactive)	> 100 µM (inactive)	–	–	82 µM (inactive)	> 100 µM (inactive)	> 100 µM (inactive)	–	> 100 µM (inactive)	–	> 100 µM (inactive)	–	–	–	–	> 100 µM (inactive)
CCOC(=O)C(C(=O)OCC)c1cc(-c2cc3ccccc3o2)oc(=O)c1C#N	25.3 µM (inactive)	25.1 µM (inactive)	17.4 µM (inactive)	32.5 µM (inactive)	22.2 µM (inactive)	–	22.4 µM (inactive)	19.6 µM (inactive)	3.41 µM (inactive)	21.3 µM (inactive)	26.5 µM (inactive)	35.6 µM (inactive)	17.9 µM (inactive)	29.7 µM (inactive)	–	–	–	–	–	20.8 µM (inactive)
CCOC(=O)C(OP(=O)(OCC)OCC)C(F)(F)F (stereo not drawn)	> 100 µM (inactive)	> 100 µM (inactive)	–	–	–	> 100 µM (inactive)	> 100 µM (inactive)	> 100 µM (inactive)	–	> 100 µM (inactive)	–	> 100 µM (inactive)	> 100 µM (inactive)	> 100 µM (inactive)	> 100 µM (inactive)	–	> 100 µM (inactive)	> 100 µM (inactive)	–	> 100 µM (inactive)
Clc1nc2c(N3CCCC3)nc(N3CCNCC3)nc2[nH]1	–	22.3 µM (inactive)	39 µM (inactive)	15.1 µM (inactive)	18.7 µM (inactive)	18 µM (inactive)	20.7 µM (inactive)	14.1 µM (inactive)	16.6 µM (inactive)	16 µM (inactive)	18.5 µM (inactive)	21.3 µM (inactive)	15.8 µM (inactive)	19.5 µM (inactive)	18.2 µM (inactive)	17.8 µM (inactive)	17.7 µM (inactive)	17.6 µM (inactive)	17.8 µM (inactive)	19.7 µM (inactive)
Cc1cccc(C(O)c2cccnc2)c1O (stereo not drawn)	–	> 100 µM (inactive)	> 100 µM (inactive)	76.4 µM (inactive)	> 100 µM (inactive)	> 100 µM (inactive)	> 100 µM (inactive)	> 100 µM (inactive)	–	> 100 µM (inactive)	–	> 100 µM (inactive)	> 100 µM (inactive)	> 100 µM (inactive)	–	> 100 µM (inactive)	> 100 µM (inactive)	> 100 µM (inactive)	–	–
O=C1[C@@H]2C(c3c(Cl)cccc3Cl)=NO[C@@H]2C(=O)N1c1ccc(Cc2ccc(N3C(=O)[C@H]4C(c5c(Cl)cccc5Cl)=NO[C@H]4C3=O)cc2)cc1	> 100 µM (inactive)	> 100 µM (inactive)	> 100 µM (inactive)	> 100 µM (inactive)	> 100 µM (inactive)	> 100 µM (inactive)	> 100 µM (inactive)	> 100 µM (inactive)	> 100 µM (inactive)	–	> 100 µM (inactive)	> 100 µM (inactive)	> 100 µM (inactive)	> 100 µM (inactive)	> 100 µM (inactive)	–	–	–	> 100 µM (inactive)	> 100 µM (inactive)
Nc1nnc2ccc(Cl)cc2[n+]1[O-]	68.5 µM (inactive)	62.5 µM (inactive)	> 100 µM (inactive)	31 µM (inactive)	> 100 µM (inactive)	–	54 µM (inactive)	29.8 µM (inactive)	–	39.7 µM (inactive)	–	> 100 µM (inactive)	57.5 µM (inactive)	29.3 µM (inactive)	28.6 µM (inactive)	> 100 µM (inactive)	70.1 µM (inactive)	37.6 µM (inactive)	–	39.1 µM (inactive)
O=C(c1ccccc1)C1C(c2ccccc2)N1S(=O)(=O)c1ccccc1 (stereo not drawn)	–	> 100 µM (inactive)	> 100 µM (inactive)	> 100 µM (inactive)	> 100 µM (inactive)	> 100 µM (inactive)	> 100 µM (inactive)	> 100 µM (inactive)	–	> 100 µM (inactive)	> 100 µM (inactive)	> 100 µM (inactive)	> 100 µM (inactive)	–	> 100 µM (inactive)	> 100 µM (inactive)	> 100 µM (inactive)	> 100 µM (inactive)	–	> 100 µM (inactive)
Clc1ccccc1/C=C/c1cscn1	> 100 µM (inactive)	> 100 µM (inactive)	–	–	–	> 100 µM (inactive)	> 100 µM (inactive)	> 100 µM (inactive)	–	> 100 µM (inactive)	> 100 µM (inactive)	> 100 µM (inactive)	> 100 µM (inactive)	> 100 µM (inactive)	> 100 µM (inactive)	–	–	–	–	> 100 µM (inactive)
O=c1c(-c2ccccc2)c(SCCN2CCCCCC2)n(-c2ccccc2)c(=S)n1-c1ccccc1	19.7 µM (inactive)	> 100 µM (inactive)	22.9 µM (inactive)	23.2 µM (inactive)	83.9 µM (inactive)	32.7 µM (inactive)	12.5 µM (inactive)	17.2 µM (inactive)	15.2 µM (inactive)	–	15.5 µM (inactive)	20.7 µM (inactive)	50.7 µM (inactive)	11 µM (inactive)	> 100 µM (inactive)	–	24.9 µM (inactive)	–	–	–
COc1cc(/N=N\c2ccc(OC)c(S(=O)(=O)O)c2)c(C)cc1/N=N\c1ccc(/C=C/c2ccc(/N=[N+](/[O-])c3ccc(/C=C/c4ccc(/N=N/c5cc(C)c(/N=N\c6ccc(OC)c(S(=O)(=O)O)c6)cc5OC)cc4S(=O)(=O)O)c(S(=O)(=O)O)c3)cc2S(=O)(=O)O)c(S(=O)(=O)O)c1	> 100 µM (inactive)	> 100 µM (inactive)	–	> 100 µM (inactive)	> 100 µM (inactive)	> 100 µM (inactive)	> 100 µM (inactive)	> 100 µM (inactive)	> 75.2 µM (inactive)	> 100 µM (inactive)	> 100 µM (inactive)	> 100 µM (inactive)	> 100 µM (inactive)	69.8 µM (inactive)	> 100 µM (inactive)	–	> 100 µM (inactive)	–	–	–

Source: ChEMBL document CHEMBL1201862, “PubChem BioAssay data set” (2004)
